Results taken from patent US20170071908A1, “PYRROLIDINE- SUBSTITUTED FLAVONE DERIVATIVES FOR PREVENTION OR TREATMENT OF ORAL MUCOSITIS” (priority 2012, published 2017).
Entries after “also recorded” stand apart in the source; their conditions may differ.

How the values were obtained:
[1] = test system: Radiation Induced Oral Mucositis in Hamsters; assay: Radiation induced oral mucositis in hamsters (left buccal pouch, single 40 Gy dose on Day 0); format: in vivo, Male LVG Syrian Golden Hamsters; conditions: for maximum mean mucositis score: score scale 0-5
Excerpt: Male LVG Syrian Golden Hamsters, 5 to 6 weeks old, weighing 87.7 to 97.1 g (Charles River Laboratories, US) at the commencement of the study, were used. An ear punch was used to number the animals individually. Approximately 8-10 animals were housed per cage. The animals were acclimatized for at least 3 days before experimentation. During this period, they were observed daily to ensure that the animals are in good condition. The animals that presented poor condition were rejected.
Animals were randomly and prospectively divided into 5 groups: • i) Group 1: Animals (n=8) were administered with 5% w/v dextrose monohydrate intraperitoneally from Day 0 to Day 4 or from Day 0 to Day 9. • ii) Group 2: Animals (n=10) were administered with 10 mg/kg of compound A intraperitoneally from Day 0 to Day 4. • iii) Group 3: Animals (n=10) were administered with 20 mg/kg of compound A intraperitoneally from Day 0 to Day 4. • iv) Group 4: Animals (n=10) administered with 10 mg/kg of compound A intraperitoneally from Day 0 to Day 9. • v) Group 5: Animals (n=10) administered with 20 mg/kg of compound A intraperitoneally from day Day 0 to Day 9.
Mucositis induction: The animals were anesthetized and the left buccal pouch was everted, fixed and isolated using a lead shield. The left buccal pouch mucosa of the animal was exposed to radiation at a rate of 2.0 Gy/minute. A single dose of radiation (40 Gy/dose) was administered to all animals on Day 0. Radiation was generated with 160 kilovolt potential source at a focal distance of 21 cm, hardened with a 0.35 mm Al filtration system. Animals of Group 2 to 5 were treated with compound A as per the schedule detailed above one hour prior to the radiation. The volume administered to all the above Groups was 0.2 mL/100 g.
For evaluation of mucositis, the animals were anesthetized with an inhalation anesthetic and the left buccal pouch everted. Mucositis was scored visually using the following criteria for evaluation:
Weight change and survival were also measured throughout the study.
The significance of differences observed between the different treatment groups was evaluated by comparing the days with mucositis scores ≧3 and […] between groups using a chi-squared analysis.
An analysis of the severity of mucositis was performed using Mann-Whitney rank sum analysis to compare the visual mucositis scores for each treatment group to the vehicle control on each day of the analysis.
The percentage of animals in each group with ulcerative mucositis at each day of the study was evaluated.

[2] = test system: Radiation Induced Oral Mucositis; assay: Clinical study of compound A with external beam radiotherapy in squamous cell carcinoma of oral cavity, oropharynx and hypopharynx; format: in vivo
Method: The compound A and external beam radiotherapy (EBRT) were administered for six weeks i.e., 2 cycles of compound A and […] of radiation. One, three weeks (21 days) cycle of combination regimen comprised of dosing compound A for days 1 to 5 and EBRT on days 1 to 5, 8 to 12 and 15 to 19. The combination treatment schedule is depicted in the following table:
A] Dose of compound A: In the Phase I part of the clinical trial, 11 patients were enrolled and 100 mg/m^2/day of compound A was determined to be the maximum tolerated dose (MTD) as two dose limiting toxicities occurred at the higher dose of 140 mg/m^2/day. Additional 12 subjects were enrolled at the MTD dose level to confirm the safety and tolerability of that dose. B] Procedure: Compound A (100 mg/m^2/day) in 5% dextrose (200 mL) was administered to 19 patients as intravenous infusion over 30 minutes on days 1 to 5 of a 21 day cycle. After about 1.5 hours of infusion of compound A, the patients received EBRT (2 Grays per day for 5 days) to the affected body parts (primary tumor site and involved cervical lymph nodes) through linear accelerator. Patients continued to receive EBRT (2 Grays per day) on days 8-12 and 15-19. On days 6, 7, 13 and 14 patients were not infused with compound A, neither were exposed to radiotherapy.
The procedure was repeated for cycle 2.
At investigator's discretion, some patients were given additional radiation of up to 10 additional Grays (2 Grays per day for 5 days) commencing immediately after the completion of the prescribed radiation dose of 60 Grays. Total radiation dose for spinal cord was less than 48 Grays.
The Common Terminology Criteria for Adverse Events (version 3) (version 3, Publish Date: Aug. 9, 2006) laid down by the National Cancer Institute for oral mucositis in radiation therapy was followed.

[3] = amifostine therapy, serious side-effect; cited from earlier work
[4] = 19 evaluable patients, 100 mg/m^2/day i.v. plus EBRT, CTCAE version 3

Structure (SMILES): CN1CC[C@@H](c2c(O)cc(O)c3c(=O)cc(-c4ccccc4Cl)oc23)[C@@H]1CO.Cl [Compound A, (+)-trans-2-(2-Chlorophenyl)-5,7-dihydroxy-8-(2-hydroxymethyl-1-methyl-pyrrolidin-3-yl)-chromen-4-one hydrochloride]
- percent of days and number of days with ulcerative mucositis (score ≧3) compared to vehicle control ([1]; 10 mg/kg from Days 0 to 9): significantly reduced
- maximum mean mucositis score ([1]; Group 2: 10 mg/kg intraperitoneally Day 0 to Day 4, maximum on Day 18): 3.0
- maximum mean mucositis score ([1]; Group 3: 20 mg/kg intraperitoneally Day 0 to Day 4, maximum on Day 16): 3.0
- mucositis severity (visual mucositis scores vs vehicle control, Mann-Whitney rank sum) ([1]; Group 4: 10 mg/kg i.p. Day 0 to Day 9, Day 18 (p=0.073) and Day 28 (p=0.064)): strong trend of lower scores
- mucositis severity (visual mucositis scores vs vehicle control, Mann-Whitney rank sum) ([1]; Group 4: 10 mg/kg i.p. Day 0 to Day 9, Day 24 (p=0.002) and Day 26 (p=0.024), hydrochloride, 10 mg/kg): significant reductions in mucositis; also recorded: significant improvement in mucositis scores
- reduction of percentage of animals with ulcerative mucositis (score ≧3) compared to Group 1 ([1]; Group 4: 10 mg/kg i.p. Day 0 to Day 9, Days 24 to 28, first of three values): 72.7%
- reduction of percentage of animals with ulcerative mucositis (score ≧3) compared to Group 1 ([1]; Group 4: 10 mg/kg i.p. Day 0 to Day 9, Days 24 to 28, second of three values): 83.8
- reduction of percentage of animals with ulcerative mucositis (score ≧3) compared to Group 1 ([1]; Group 4: 10 mg/kg i.p. Day 0 to Day 9, Days 24 to 28, third of three values): 77.8%
- percentage of animal days with a mucositis score of ≧3 ([1]; Group 4: 10 mg/kg i.p. Day 0 to Day 9, entire study duration, vehicle control 63.0%): 43.5%
- maximum mean mucositis score ([1]; Group 4: 10 mg/kg intraperitoneally Day 0 to Day 9, maximum on Day 16): 3.0
- maximum mean mucositis score ([1]; Group 5: 20 mg/kg intraperitoneally Day 0 to Day 9, maximum on Day 16): 3.1
- percent body weight change among groups ([1]; Groups 1 to 5, one-way ANOVA): no significant difference
- percentage of animal days with a mucositis score of ≧3 compared to vehicle control ([1]; other 3 treatment groups (Groups 2, 3 and 5), chi-squared analysis): not significantly different
- radioprotective effect, compared with historical rates of serious RIM (Grade 3 and above, Trotti et al.) ([2]; 19 evaluable patients, 100 mg/m^2/day i.v. plus EBRT): has radioprotective effects
- events of mucositis reported (all grades) ([2]; 19 evaluable patients, 100 mg/m^2/day i.v. plus EBRT 2 Grays per day, 2 cycles, CTCAE version 3): five
- events of mild mucositis (Grade 1) [2, 4]: one
- events of moderate mucositis (Grade 2) [2, 4]: one
- events of moderate stomatitis (Grade 2) [2, 4]: two
- events of severe mucositis (Grade 3) [2, 4]: one
- maximum tolerated dose (MTD) ([2]; Phase I part, intravenous infusion days 1 to 5 of a 21 day cycle, with EBRT): 100 mg/m^2/day
- dose limiting toxicities ([2]; human, in vivo): two

Structure (SMILES): NCCCNCCSP(=O)(O)O [amifostine, Amifostine]
- hypotension, share of patients [3]: 62%
